In US7468391B2, “Methods for treating retinoid responsive disorders using selective inhibitors of CYP26A and CYP26B” (Allergan, Inc., priority 2003, dated 2008):

Columns and labels:
CYP26A (P450RAI-1) = molecular target: T1, CYP26A (P450RAI-1) (Homo sapiens, UniProt O43174); assay: Cell-based inhibition of RA metabolism in CYP26A stably transfected HeLa cells; settings: stably transfected HeLa cells, [3H]-RA, 3 hours at 37° C.; read-out: P450RAI-1 Whole cell IC50
T1 construct: expressed in transfected cells; host or cells: HeLa
T1 sequence (O43174 1-497): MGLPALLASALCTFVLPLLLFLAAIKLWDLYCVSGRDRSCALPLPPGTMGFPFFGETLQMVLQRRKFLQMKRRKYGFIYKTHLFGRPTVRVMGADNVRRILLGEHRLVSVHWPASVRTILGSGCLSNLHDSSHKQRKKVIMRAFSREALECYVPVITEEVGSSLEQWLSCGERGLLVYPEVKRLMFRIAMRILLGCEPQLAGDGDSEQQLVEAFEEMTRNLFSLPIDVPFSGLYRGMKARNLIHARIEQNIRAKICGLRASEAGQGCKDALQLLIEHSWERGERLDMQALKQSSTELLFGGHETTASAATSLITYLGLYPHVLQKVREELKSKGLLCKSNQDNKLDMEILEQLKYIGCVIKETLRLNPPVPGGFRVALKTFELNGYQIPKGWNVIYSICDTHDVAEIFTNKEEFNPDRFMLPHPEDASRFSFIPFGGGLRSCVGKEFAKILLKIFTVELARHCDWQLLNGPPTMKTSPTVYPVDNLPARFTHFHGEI
Method: (§1) In brief, CYP26A or CYP26B can be stably transfected into HeLa cells. Exponentially growing cells are harvested by incubating in trypsin. Cells are then washed and plated in a 48-well plate at 5×10^5 cells in 0.2 ml MEM medium containing 10% FBS and 0.05 μCi [^3H]-RA in the presence or absence of increasing concentrations of the test compounds. The compounds are diluted in 100% DMSO and then added in triplicate wells at either 10, 1 or 0.1 μM final concentration. As a positive control for RA metabolism inhibition, cells are also incubated with ketoconazole at 100, 10 and 1 μM. Cells are incubated for 3 hours at 37 degrees C. The retinoids are then extracted using the procedure of Bligh et al., Canadian Journal of Biochemistry 37: 911-917 (1959), modified by using methylenechloride instead of chloroform. This publication by Bligh et al., is specifically incorporated herein by reference. The water soluble radioactivity is quantified using a β scintillation counter, and IC50 values are determined.
(§2) CYP26A and CYP26B stably transfected HeLa cells were maintained in 100 mm tissue culture dishes in MEM medium containing 10% FBS and 100 μg/ml hygromycin.
(§3) Exponentially growing cells were harvested by incubating in trypsin. Cells were then washed with 1×PBS and plated in a 48-well plate at 5×10^5 cells in 0.2 ml MEM medium containing 10% FBS and 0.05 μCi [^3H]-RA in the presence or absence of increasing concentrations of the test compounds. The compounds were diluted in 100% DMSO and then added to triplicate wells at final concentrations of 10, 1 or 0.1 μM. As a positive control for RA metabolism inhibition, cells were also incubated with ketoconazole at 100, 10 and 1 μM. Cells were incubated for 3 hours at 37° C. The retinoids were then extracted using a modified Bligh and Dyer procedure (Bligh and Dyer, supra (1959)), in which methylene-chloride, as opposed to chloroform, was used, and the aqueous soluble radioactivity quantified using a β-scintillation counter. ID50 values represent the concentration of inhibitor required to inhibit RA metabolism by 50 percent and were derived manually from log-transformed data.

CYP26B (P450RAI-2) = molecular target: T2, CYP26B (P450RAI-2) (Homo sapiens, UniProt Q9NR63); assay: Cell-based inhibition of RA metabolism in CYP26B stably transfected HeLa cells; settings: stably transfected HeLa cells, [3H]-RA, 3 hours at 37° C.; read-out: P450RAI-2 Whole cell IC50
T2 construct: expressed in transfected cells; host or cells: HeLa
T2 sequence (Q9NR63 1-512): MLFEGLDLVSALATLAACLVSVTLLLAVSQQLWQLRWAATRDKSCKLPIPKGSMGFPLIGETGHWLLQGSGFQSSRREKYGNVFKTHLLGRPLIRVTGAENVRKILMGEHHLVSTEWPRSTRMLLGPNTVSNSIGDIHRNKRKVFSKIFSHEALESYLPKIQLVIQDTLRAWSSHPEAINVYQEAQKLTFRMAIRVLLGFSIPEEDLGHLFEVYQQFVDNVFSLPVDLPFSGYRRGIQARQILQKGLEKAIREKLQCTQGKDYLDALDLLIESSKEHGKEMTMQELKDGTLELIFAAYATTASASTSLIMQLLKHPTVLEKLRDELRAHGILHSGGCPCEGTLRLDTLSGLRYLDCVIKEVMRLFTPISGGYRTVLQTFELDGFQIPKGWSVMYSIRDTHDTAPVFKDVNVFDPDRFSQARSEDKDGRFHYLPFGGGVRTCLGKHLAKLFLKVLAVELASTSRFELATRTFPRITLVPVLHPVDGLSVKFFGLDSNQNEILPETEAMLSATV
Method: as §1, §2, §3

RAR α = molecular target: T3, RAR α (Homo sapiens, UniProt P10276); assay: RAR α Kd; format: binding; settings: last item of cell EC50/(EFFICACY)/Kd
T3 sequence (P10276 1-462): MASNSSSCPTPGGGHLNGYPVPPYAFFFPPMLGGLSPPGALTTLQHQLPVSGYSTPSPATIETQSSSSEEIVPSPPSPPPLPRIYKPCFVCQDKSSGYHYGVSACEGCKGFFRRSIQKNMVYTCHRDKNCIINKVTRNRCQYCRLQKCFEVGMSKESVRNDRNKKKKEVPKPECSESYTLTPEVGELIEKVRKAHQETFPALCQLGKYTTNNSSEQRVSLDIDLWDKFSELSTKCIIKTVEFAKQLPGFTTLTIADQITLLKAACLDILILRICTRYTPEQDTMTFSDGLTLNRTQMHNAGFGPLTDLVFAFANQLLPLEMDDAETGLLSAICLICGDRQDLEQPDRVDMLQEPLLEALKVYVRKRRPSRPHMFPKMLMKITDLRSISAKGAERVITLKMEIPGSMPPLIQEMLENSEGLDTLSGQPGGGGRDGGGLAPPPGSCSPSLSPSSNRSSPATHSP

RAR β = molecular target: T4, RAR β (Homo sapiens, UniProt P10826); assay: RAR β Kd; format: binding; settings: last item of cell EC50/(EFFICACY)/Kd
T4 sequence (P10826 1-455): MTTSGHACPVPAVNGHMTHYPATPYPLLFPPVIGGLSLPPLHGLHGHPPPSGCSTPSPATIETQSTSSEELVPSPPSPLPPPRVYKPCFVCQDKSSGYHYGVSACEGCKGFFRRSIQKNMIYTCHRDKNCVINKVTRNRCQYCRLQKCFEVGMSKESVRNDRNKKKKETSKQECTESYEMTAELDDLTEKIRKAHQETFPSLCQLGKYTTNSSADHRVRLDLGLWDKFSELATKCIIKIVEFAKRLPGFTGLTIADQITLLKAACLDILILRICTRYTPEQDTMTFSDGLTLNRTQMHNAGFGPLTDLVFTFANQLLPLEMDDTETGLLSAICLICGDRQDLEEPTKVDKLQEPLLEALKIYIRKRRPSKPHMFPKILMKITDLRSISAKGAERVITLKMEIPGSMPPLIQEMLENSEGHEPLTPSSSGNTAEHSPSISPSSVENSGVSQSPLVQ

RAR γ = molecular target: T5, RAR γ (Homo sapiens, UniProt P13631); assay: RAR γ Kd; format: binding; settings: last item of cell EC50/(EFFICACY)/Kd
T5 sequence (P13631 1-454): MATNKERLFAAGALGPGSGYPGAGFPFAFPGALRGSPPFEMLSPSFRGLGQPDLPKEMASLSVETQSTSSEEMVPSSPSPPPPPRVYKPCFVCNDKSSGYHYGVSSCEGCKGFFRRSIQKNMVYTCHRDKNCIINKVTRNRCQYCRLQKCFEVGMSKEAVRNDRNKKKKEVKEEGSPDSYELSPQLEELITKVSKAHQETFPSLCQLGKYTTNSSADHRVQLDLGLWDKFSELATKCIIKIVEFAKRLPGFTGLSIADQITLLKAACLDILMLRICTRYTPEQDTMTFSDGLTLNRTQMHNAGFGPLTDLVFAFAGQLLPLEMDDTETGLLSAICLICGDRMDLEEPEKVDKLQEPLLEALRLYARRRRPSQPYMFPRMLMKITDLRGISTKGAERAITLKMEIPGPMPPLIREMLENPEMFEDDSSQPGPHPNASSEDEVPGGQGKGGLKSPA

| Compound | IC50 (CYP26A (P450RAI-1)) [µM] | IC50 (CYP26B (P450RAI-2)) [µM] | Kd (RAR α) [µM] | Kd (RAR β) [µM] | Kd (RAR γ) [µM] |
| --- | --- | --- | --- | --- | --- |
| CN(C1CC1)C1CCC(C)(C)c2cc(NC(=O)Nc3ccc(C(=O)O)cc3)ccc21 (stereo not drawn) [Compound 21, 4-{3-[5-(Cyclopropyl-methyl-amino)-8,8-dimethyl-5,6,7,8-tetrahydro-naphthalen-2-yl]-ureido}-benzoic acid] | > 10 | 0.7 | > 10 | > 10 | > 10 |
| C/C(=C/C(=O)O)c1ccc(C#Cc2cccc(CN(C)C3CC3)c2)cc1 [Compound 32, 3-(4-{3-[(Cyclopropyl-methyl-amino)-methyl]-phenylethynyl}-phenyl)-but-2-enoic acid] | 0.44 | > 10 | > 10 | > 10 | > 10 |
| CC(C)c1cc(C#Cc2cccc(/C=C/C(=O)O)c2)cc2c1OC(C)(C)CC2(C)C [Compound 15, 3-[3-(8-Isopropyl-2,2,4,4-tetramethyl-chroman-6-ylethynyl)-phenyl]-acrylic acid] | 0.6 | > 10 | 8.9 | > 10 | > 10 |
| CN(C1CC1)C1CCC(C)(C)c2cc(C#Cc3ccc(C(C)(C)C(=O)O)cc3)cc(C3CC3)c21 (stereo not drawn) [Compound 50, 2-{4-[4-Cyclopropyl-5-(cyclopropyl-methyl-amino)-8,8-dimethyl-5,6,7,8-tetrahydro-naphthalen-2-ylethynyl]-phenyl}-2-methyl-propionic acid] | 0.1 | > 10 | > 10 | > 10 | > 10 |
| CC(C)OC(=O)c1ccc(C#Cc2ccc(CC(=O)O)c(F)c2)cc1CN(C)C1CC1 [Compound 39, 4-(4-Carboxymethyl-3-fluoro-phenylethynyl)-2-[(cyclopropyl-methyl-amino)-methyl]-benzoic acid isopropyl ester] | 2.5 | > 10 | > 10 | > 10 | > 10 |
| CC(C(=O)O)c1ccc(C#Cc2cc(C3CC3)c3c(c2)C(C)(C)CC2(CC2)O3)cc1 (stereo not drawn) [Compound 1, 2-{4-[(8-Cyclopropyl-3,4-dihydro-4,4-dimethylspiro[2H-1-benzopyran-2,1′-cyclopropane]-6-yl)ethynyl]-phenyl}-propionic acid] | 0.009 | 8 | 2.09 | 3.02 | 3.49 |
| CC1(C)CC(C)(C)c2cc(C#Cc3ccc(C(C)(C)C(=O)O)cc3)cc(O)c2O1 [Compound 12, 2-[4-(8-Hydroxy-2,2,4,4-tetramethyl-chroman-6-ylethynyl)-phenyl]-2-methyl-propionic acid] | 0.16 | > 10 | > 10 | > 10 | > 10 |
| COc1cc(C#Cc2ccc(C(C)C(=O)O)cc2)cc2c1C(N(C)C1CC1)CCC2(C)C (stereo not drawn) [Compound 27, 2-{4-[5-(Cyclopropyl-methyl-amino)-4-methoxy-8,8-dimethyl-5,6,7,8-tetrahydro-naphthalen-2-ylethynyl]-phenyl}-propionic acid] | 0.028 | > 10 | 0.118 | 1.27 | > 10 |
| C#Cc1cc(C#Cc2ccc(CC(=O)OCOC(C)=O)c(F)c2)cc(C(=O)OC(C)C)c1 [Compound 62, 3-(4-Acetoxymethoxycarbonylmethyl-3-fluoro-phenylethynyl)-5-ethynyl-benzoic acid isopropyl ester] | 0.4 | 6.1 | > 10 | > 10 | > 10 |
| CC(C)OC(=O)c1cccc(C#Cc2ccc(CC(=O)O)c(F)c2)c1 [Compound 44, 3-(4-Carboxymethyl-3-fluoro-phenylethynyl)-benzoic acid isopropyl ester] | 0.7 | 7.5 | > 10 | 8.17 | > 10 |
| CN(Cc1cc(C#Cc2ccc(CC(=O)O)c(F)c2)cc2c1OC(C)(C)CC2(C)C)C1CC1 [Compound 7, (4-{8-[(Cyclopropyl-methyl-amino)-methyl]-2,2,4,4-tetramethyl-chroman-6-ylethynyl}-2-fluoro-phenyl)-acetic acid] | 0.04 | 2 | > 10 | > 10 | > 10 |
| CN(Cc1cc(C#Cc2ccc(C(C)(C)C(=O)O)cc2)cc2c1OC(C)(C)CC2(C)C)C1CC1 [Compound 9, 2-(4-{8-[(Cyclopropyl-methyl-amino)-methyl]-2,2,4,4-tetramethyl-chroman-6-ylethynyl}-phenyl)-2-methyl-propionic acid] | 0.12 | > 10 | > 10 | > 10 | > 10 |
